Earlier results, collected in US20050239875A1, “Derivatives of dihydronepetalactone and method for preparation” (priority 2003, published 2005).

Test system: insect
Conditions: disclosed by Hallahan in WO 03/079786

CC1COC(=O)C2C(C)CCC12 (stereo not shown) [DHN, Dihydronepetalactone]
insect repellent performance compared with N,N-diethyl-m-toluamide (DEET): compares favorably
